We go through two compounds from US20130095068A1, “AGENT FOR TREATING HCV INFECTION” (priority 2010, published 2013).

Structures are written as SMILES. “Also recorded” adds a separate entry of the source.

One data set has as its system LucNeo#2 replicon cells. Kind of data set: Cytotoxicity, Alamar Blue in LucNeo#2 replicon cells. The format is cell-based. The note with it: 72 hours, percentage of solvent-treated group. As to the method: (§1) LucNeo#2 replicon cells cultured to confluency were recovered by trypsin treatment, and were spread on a collagen-coated plate at a density of 20,000 cells/mL. The cell culture was conducted in an incubator at 37° C., 5% CO2, with 10% FCS/DMEM (containing mixed solution of penicillin-streptomycin, G418 and a non-essential amino acid). After 24 hours, the cells were rinsed and a compound of formula (I) was added as Test compound to final concentrations of 3.3 μM or 10 μM. At 72 hours after addition of the Test compound, the cells of one plate were rinsed, the cells were lysed with M-PER, and the intracellular luciferase activity was measured using a Promega kit. An Alamar Blue solution was also added to cells cultured under the same conditions, and the cytotoxicity was examined.
(§2) The intracellular luciferase activity and the Alamar Blue signal for cytotoxicity at 72 hours after Test compound addition were shown in Table 3 as a percentage with respect to the solvent-treated group.
On the technique in general: Resazurin is reduced to fluorescent resorufin, in cell work by metabolically active cells.

Data set [1] deals with genotype 1b HCV auto-replicating subgenomic replicon (luc-ubi-neo/ET replicon cells). Kind of data set: Replicon assay, luciferase activity in luc-ubi-neo/ET HCV subgenome replicon cells. The format is cell-based, Hepatitis C virus. Conditions: for EC50: Hepatitis C virus, 72 h, read-out: HCV replication inhibitory activity EC50; for Selectivity IC50/EC50 / Luciferase activity: Test compound alone; for Luciferase activity: 72 hours, percentage of solvent alone. An excerpt: The inhibitory-effect on HCV replication and the cytotoxicity of a compound of formula (I) of the invention was examined by a replicon assay using HCV subgenome replicon cells.
(§3) The HCV subgenome replicon cells used were luc-ubi-neo/ET replicon cells, having the genotype 1b HCV auto-replicating subgenomic replicon, a luciferase reporter, ubiquitin, a neomycin phosphotransferase coding sequence, and three mutations for cell culturing (Pietschmann, T. et al., J. Virol. 76:4008-4021, 2002). The ET replicon cells were cultured in DMEM containing 10% FBS, 1% penicillin/streptomycin, 1% glutamine, and 250 μg/mL G418 in an incubator at 37° C., 5% CO2. For culturing with a Test compound of formula (I), it was performed under the same conditions in DMEM containing 5% FBS, 1% penicillin/streptomycin and 1% glutamine. The ET replicon cells were cultured in two 96-well plates, at 5000 cell/well, separately. On the following day, the Test compound alone diluting to different concentrations with a maximum concentration of 1.1 μM, was added to one plate, while human recombinant Interferon-α-2b (rIFNα-2b) at a fixed concentration of 0.1 IU/mL was added to another plate with the Test compound, simultaneously. At 72 hours after addition, the luciferase activity indicating amplification of HCV mRNA was measured. The cytotoxicity was measured with a CytoTox-1 Cell Proliferation Assay (Promega Corporation).
The luciferase activities, for the compound of formula (I) alone and for a combination of the compound of formula (I) and rIFNα-2b, were shown in Table 1 as percentage with respect to luciferase activity when using the solvent alone. The HCV replication inhibitory-activity was determined as the concentration which produced 50% inhibition of HCV replicon (EC50), and the cytotoxicity was determined as the concentration which produced 50% reduction in viable cells (IC50), while the selectivity was determined as the value of IC50/EC50; the results are summarized in Table 2.
(In general: A replicon is a self-replicating genome or part of one, used to study replication in cells.)

The next data set relates to HCV 1b genotype. The data set is described as follows: Lowering effect on serum HCV RNA levels in HCV-infected human hepatocyte-transplanted mice (PXB mice). The format is in vivo, Hepatitis C virus. Conditions: oral; for Change in serum HCV RNA levels, average: day 14 versus day 0. The method, then:
The lowering effect on serum HCV RNA levels was measured to determine the HCV replication inhibitory-effect of a compound of formula (I) of the invention were determined by measuring the serum HCV RNA levels.
Human hepatocyte-transplanted model mice (PXB mice) were prepared from uPA^+/+/SCID mice as host mice. The uPA^+/+/SCID mice are characterized by a combination of liver damage and serious immune deficiency complications. Commercially available frozen human hepatocytes (BD Biosciences, MA, USA) were grafted by infusion into the spleens of male or female uPA^+/+/SCID mice that had reached a postnatal age of 2 to 4 weeks, to create human hepatocyte-transplanted mice (PXB mice) having at least 70% of the mouse liver parenchymal cells replaced with human hepatocytes. […] HCV 1b genotype-infected patient serum (PhoenixBio) was injected through the orbital socket to a virus titer of 1×10^4 copies/mouse as measured by RT-PCR (Life Technologies Corporation, Carlsbad, USA), for the HCV infection. […] […] The number of mice per group was five. The solvent alone was used as a negative control. Administration was done once per day for 14 consecutive days. With the initial administration as day 0, blood was collected on day 0, 1, 3, 7, 10, 14, 17 and 21, and the serum HCV RNA levels were measured.
The percent change of blood HCV RNA levels in 14 days, which was 24 hours after final dosing (13 day), from those in day 0, which was predose, was calculated for each individual.

A short description of data set [2]: Cytotoxicity, CytoTox-1 Cell Proliferation Assay in ET replicon cells. The format is cell-based. The note with it: human, luc-ubi-neo/ET HCV genotype 1b subgenomic replicon cells; Test compound alone, 50% reduction in viable cells, maximum concentration 1.1 μM. As to the method:
as §3, with “Corporation). […]” for “Corporation).”

Data set [3] concerns HCV subgenomic replicon (LucNeo#2 replicon cells). The data set is described as follows: Replicon assay, intracellular luciferase activity in LucNeo#2 replicon cells. The format is cell-based, Hepatitis C virus. Conditions: for Luciferase activity: 72 hours, percentage of solvent-treated group; for HCV replication inhibitory-activity (in words): LucNeo#2 replicon cells, 3.3 and 10 μM.
From the text: The inhibitory-effect on HCV replication and the cytotoxicity of a compound of formula (I) of the invention were examined by a replicon assay method using different HCV subgenomic replicon cells from Example 1, specifically LucNeo#2 replicon cells. The LucNeo#2 replicon cells are reporter cells created with the same concept as the luc-ubi-neo/ET replicon cells used in Test Example 1, and are utilized for analysis of the RNA replication mechanism of HCV or anti-HCV drug evaluation, but the gene sequence differs from that of luc-ubi-neo/ET replicon cells (Biochem. Biophys. Res. Commun. 343 (2006) 879-884).
as §1, §2

Where [4] appears, read: used in combination with rIFNα-2b.

`COc1cc(/C=C2\CCCN([C@@H](C)c3ccc(F)cc3)C2=O)ccc1-n1cnc(C)c1` [Test compound A, (E)-1-[(1S)-1-(4-fluorophenyl)ethyl]-3-[3-methoxy-4-(4-methyl-1H-imidazol-1-yl)benzylidene]piperidin-2-one]: the “Cytotoxicity (Alamar Blue signal)” value in the data set with LucNeo#2 replicon cells (3.3 μM) was 100.00%; with LucNeo#2 replicon cells (10 μM), 101.50%. The concentration for a half-maximal effect (EC50) (commonly the midpoint of the concentration-response curve) in data set [1] turned out to be 360 nM. Moreover, in data set [1], the “Selectivity IC50/EC50” value was greater than 3.06. Also, the Luciferase activity is listed as 87% in data set [1] (0.001 μM); 89% in data set [1] (0.003 μM); 87% in data set [1] (0.03 μM); 89% in data set [1] (0.11 μM); 51% in data set [1] (0.35 μM); 21% in data set [1] (1.1 μM). Further, the results for the Luciferase activity in data set [3] (3.3 μM) and in data set [3] (10 μM) were 116.60% and 42.80%, respectively. Further, the results for the “HCV replication inhibitory-activity (in words)” value in data set [1] (Test compound used alone), in data set [1] (setting [4]) and in data set [3] were “approximately dose-dependent HCV replication inhibitory-activity; also recorded: potent HCV replication inhibitory-activity at lower concentrations than the concentrations for the cytotoxicity”, “more potent reduction of HCV replication with dose-dependent manner; also recorded: even more potent HCV replication inhibitory-activity at lower concentrations than the concentrations for the cytotoxicity” and “potent HCV replication inhibitory-activity by reducing the luciferase activity in a dose-dependent manner”, respectively. Moreover, the “Change in serum HCV RNA levels, average” value was determined as 73.0% in the data set on HCV 1b genotype (10 mg/kg/day once per day for 14 days), 50.4% in the data set on HCV 1b genotype (30 mg/kg/day once per day for 14 days) and 32.6% in the data set on HCV 1b genotype (100 mg/kg/day once per day for 14 days). Besides, the “Serum HCV RNA level (in words)” value with HCV 1b genotype (14 days) is recorded as “dose-dependent reduction in serum HCV RNA level”. Besides, the concentration for half-maximal inhibition (IC50) (usually the concentration that gives 50% inhibition) at 72 h in data set [2] is greater than 1100 nM.
For the compound `COc1cc(/C=C2\CC[C@H]3COC[C@@H](c4cc(F)c(F)c(F)c4)N3C2=O)ccc1-n1cnc(C)c1` [Test compound B, (E)-(4R,9aS)-7-[3-methoxy-4-(4-methyl-1H-imidazol-1-yl)benzylidene]-4-(3,4,5-trifluorophenyl)hexahydropyrido[2,1-c][1,4]oxazin-6-one], the “Cytotoxicity (Alamar Blue signal)” value in the data set on LucNeo#2 replicon cells (3.3 μM) is reported as 101.00%; in the data set with LucNeo#2 replicon cells (10 μM), 100.75%. Besides, the EC50 in data set [1] came to 310 nM. Besides, in data set [1], the “Selectivity IC50/EC50” value was greater than 3.55. Also, the Luciferase activity is 72% in data set [1] (0.001 μM); 73% in data set [1] (0.003 μM); 62% in data set [1] (0.03 μM); 68% in data set [1] (0.11 μM); 48% in data set [1] (0.35 μM); 30% in data set [1] (1.1 μM). Moreover, the Luciferase activity in data set [3] (3.3 μM) is recorded as 50.30%; in data set [3] (10 μM), 27.80%. In addition, the results for the “HCV replication inhibitory-activity (in words)” value in data set [1] (Test compound used alone), in data set [1] (setting [4]) and in data set [3] were “approximately dose-dependent HCV replication inhibitory-activity; also recorded: potent HCV replication inhibitory-activity at lower concentrations than the concentrations for the cytotoxicity”, “more potent reduction of HCV replication with dose-dependent manner; also recorded: even more potent HCV replication inhibitory-activity at lower concentrations than the concentrations for the cytotoxicity” and “potent HCV replication inhibitory-activity by reducing the luciferase activity in a dose-dependent manner”, respectively. In data set [2], the IC50 at 72 h is greater than 1100 nM.
